According to paper PMC12254355 (Nature Communications, 2025):
Ends that are not written are not given here.

Tests used:
A. baumannii ATCC 19606 = settings: ATCC 19606, 24 h
E. coli ATCC 11775 = settings: ATCC 11775, 24 h
E. coli AIC221 = settings: AIC221, 24 h
P. aeruginosa PAO1 = settings: PAO1, 24 h
P. aeruginosa PA14 = settings: PA14, 24 h
[1] = tested on: E. faecium ATCC 700221 - VRE; settings: ATCC 700221, 24 h
HEK293T cells = settings: for CC50 vs HEK293T cells (source data of Figure 4a): 24 h
human red blood cells = settings: pH 7.4
K. pneumoniae ATCC 13883 = settings: ATCC 13883, 24 h

Row | Sequence | Minimal Inhibitory Concentration, A. baumannii ATCC 19606 (-) (A. baumannii ATCC 19606) | Minimal Inhibitory Concentration, E. coli ATCC 11775 (-) (E. coli ATCC 11775) | Minimal Inhibitory Concentration, E. coli AIC221 (-) (E. coli AIC221) | Minimal Inhibitory Concentration, P. aeruginosa PAO1 (-) (P. aeruginosa PAO1) | Minimal Inhibitory Concentration, P. aeruginosa PA14 (-) (P. aeruginosa PA14) | Minimal Inhibitory Concentration, E. faecium ATCC 700221 - VRE (+) [1] | SIcytotoxicity (HEK293T cells) | CC50 vs HEK293T cells (source data of Figure 4a) (HEK293T cells) | HC50 (human red blood cells) | Minimal Inhibitory Concentration, K. pneumoniae ATCC 13883 (-) (K. pneumoniae ATCC 13883) | CC50 vs HEK293T cells (HEK293T cells)
1 | RKFKWGKLFSTAKKLYKKGKKLSKNKNFKKALK [UniprotKB-12] | 64 µmol/L | 32 µmol/L | 2 µmol/L | 4 µmol/L | 4 µmol/L | 32 µmol/L | 11.9 | 23.71 µM | 604.3 |  | 
2 | KFSVFSKILRSIAKVFKGVGKVRK [Arachnoserver-27] |  | 32 µmol/L | 8 µmol/L |  |  | 8 µmol/L | 2.0 | 7.976 µM | 24.2 | 4 µmol/L | 
3 | KWLKAMKSIAKFIAKKQMKKHL [Arachnoserver-32] |  |  | 64 µmol/L | 8 µmol/L | 16 µmol/L | 4 µmol/L | 1.9 | 7.568 µM | 19.2 | 16 µmol/L | 8 µM
4 | KWGKLFSAGKKLLKKAKKL [Arachnoserver-4] | 64 µmol/L | 32 µmol/L | 16 µmol/L | 8 µmol/L | 16 µmol/L | 16 µmol/L | 2.4 | 19.57 µM | 1.085e+083 |  | 20 µM
5 | RFGSFLKKVWKSKLAKKL [UniprotKB-20] | 64 µmol/L | 32 µmol/L | 16 µmol/L | 8 µmol/L | 16 µmol/L | 8 µmol/L | 6.6 | 52.53 µM | 18147.0 |  | 
6 | KYRRGVSPWLKKELVRLHNNLRSKVAGGK [Arachnoserver-31] |  | 8 µmol/L | 4 µmol/L |  | 64 µmol/L | 16 µmol/L | 3.2 | 12.67 µM | 1392.0 | 4 µmol/L | 13 µM
7 | LKLKSILGKLGVIL [UniprotKB-4] | 64 µmol/L |  |  |  |  |  | 0.7 | 10.49 µM | 3.938e+054 | 64 µmol/L | 10 µM
8 | KRFIRNLRSNLYQKIIKSTKSLLDLREKI [Arachnoserver-17] |  | 64 µmol/L | 8 µmol/L |  |  |  | 4.1 | 16.47 µM | 280.5 | 4 µmol/L | 
9 | VNSFKIGGFIKKLWRSKLAKKLRAK [UniprotKB-19] | 64 µmol/L | 64 µmol/L | 16 µmol/L | 8 µmol/L | 16 µmol/L | 4 µmol/L | 10.2 | 40.64 µM | 625.9 |  | 
10 | RRVKRFKKFFMKLKKSVKKRVMKFFK [UniprotKB-5] | 64 µmol/L | 32 µmol/L | 32 µmol/L | 8 µmol/L | 8 µmol/L | 8 µmol/L | 1.1 | 8.885 µM | 103.8 |  | 9 µM
11 | KNKRFIRNLRSNLYQKIIKSTKSLL [UniprotKB-14] |  | 32 µmol/L | 8 µmol/L | 32 µmol/L | 32 µmol/L | 32 µmol/L | 5.7 | 45.94 µM | 7.733e+045 | 32 µmol/L | 
12 | FIKKLWRSKLAKKLRAKGRELLK [UniprotKB-17] | 32 µmol/L | 16 µmol/L | 16 µmol/L | 8 µmol/L | 16 µmol/L | 16 µmol/L | 3.9 | 30.97 µM | 4.224e+042 |  | 
13 | ARKFKWGKLFSAGKKLLKKAKKLSKNK [Arachnoserver-11] | 64 µmol/L | 32 µmol/L | 4 µmol/L | 8 µmol/L | 8 µmol/L | 8 µmol/L | 2.2 | 8.722 µM | 1118.0 |  | 9 µM
14 | RKFKWGSFKKILSAGKKLFKKAKKLSK [Arachnoserver-2] | 32 µmol/L | 8 µmol/L | 1 µmol/L | 4 µmol/L | 4 µmol/L | 8 µmol/L | 9.9 | 9.929 µM | 108.1 |  | 10 µM
15 | KLHGLLTRRSLKNFWKRNLYLR [Conoserver-6] | 32 µmol/L | 64 µmol/L | 4 µmol/L | 16 µmol/L | 32 µmol/L | 32 µmol/L | 7.9 | 31.74 µM | 66.3 |  | 
